Test results: patent US20250108038A1 (priority 2023, published 2025)

Key:
Wistar rats [1] = assay: Five Choice Serial Reaction Time Task, vITI version, repeated administration; assay type: in vivo, Wistar rat; set-up: Latency (Correct) / Latency (Incorrect): unit not given here; settings: for Latency (Correct) / Latency (Incorrect) / Magazine Head Entries / Omissions / Reward Latency / Trials Completed: vITI, mean ± SEM
Excerpt: (§1) The behavioral tasks utilized were three versions of the rat Five Choice Serial Reaction Time Task (5C-SRTT), the standard version of the task (STD) with a fixed stimulus duration and a fixed intertrial interval, the variable stimulus duration (vSD) and the variable intertrial interval (vITI) version. The principal readout parameters in each task were the % Hit and the % correct choices (measures of sustained attention) and three measures of inhibitory response control (premature, perseverative, and timeout responses), although a number of additional outcome measures were obtained (see under Methods and Results below).
(§2) Twenty-four adult (approx. 10 months old) male Wistar rats (Envigo, Inc, Indianapolis, IN) were used in the study. […] Subjects were double housed in polycarbonate cages (45×30×18 cm) with corncob bedding in a vivarium of constant temperature (21-23° C.) and humidity (40-50%). […] All behavioral testing was performed during the light portion (9 a.m.-5 p.m.) of the light/dark cycle (Monday thru Friday). Animals were cared for in accordance with the Guide for the Care and Use of Laboratory Animals (U.S. National Institutes of Health) and the experimental protocols were approved by the Institutional Animal Care and Use Committee at Augusta University (Protocol #2010-0044).
(§3) The 5C-SRTT procedure (reviewed, Robbins, 2002. Psychopharmacology (Berl); 163(3-4):362-80) was conducted as we have described previously (Terry et al., 2014, Neurotoxicology and Teratology 44:18-29, 2014; Callahan et al., 2020, Neuropharmacology. August 15; 173:107994). […] Animals were trained in eight automated 5C-SRTT operant chambers (Med Associates, St. Albans, VT, USA), controlled by MedPC software (Med Associates). Briefly, each operant chamber was equipped with 5 apertures containing a photocell beam to detect nose pokes and a lamp (2.8 W) that could be illuminated randomly at varying durations. Food pellets (45 mg chow pellet, BioServ, Frenchtown, NJ, USA) were delivered automatically to a magazine, located on the opposite wall to the nose pokes, that was also equipped with a light that turned on to indicate that a pellet had been dispensed. The house-light remained on for the entire session unless an error or omission occurred. Training sessions began with the delivery of a food reward and retrieval triggered the first trial. […] Sessions ended when 40 minutes had lapsed or 100 trials had been completed.
(§4) For this study, subjects were re-trained 5 days per week until they re-established a stable performance criteria with a fixed (1.0 sec) stimulus duration and a fixed ITI (5 sec) of 70-75% accuracy, <20% omissions and completion of all 100 trials for 5 consecutive days. Upon meeting these performance criteria animals were trained for one additional week and two groups of subjects (N=12) were assembled and balanced according to their performance accuracy, specifically the % Hit evaluation, which takes into account correct responses as well as all incorrect responses including the number of omissions. […] The vSD version of the task increases the attentional load while the vITI increases impulsivity-like behavior. The following outcome measures and behavioral domains were assessed: % Hit and % correct=sustained attention; omissions=attention/motivation; premature responses=impulsivity; perseverative responses=compulsivity; timeout responses=cognitive inflexibility; magazine head entries=appetitive motivation and compulsivity-like behavior; response latencies=information processing speed and/or motivation. For the STD version of the task, the stimulus duration (SD) was fixed at 1.0 sec and the ITI was fixed at 5 sec. In the vSD version of the task the following stimulus durations were presented in a pseudorandom manner: 0.3, 0.6, and 0.9 sec. In the vITI version, 2.5, 5.0, and 10.0 sec ITIs were employed in a pseudorandom manner. […]

Wistar rats [2] = assay: Five Choice Serial Reaction Time Task, vSD version, repeated administration; assay type: in vivo, Wistar rat; set-up: Latency (Correct) / Latency (Incorrect): unit not given here; settings: for Latency (Correct) / Latency (Incorrect) / Magazine Head Entries / Omissions / Reward Latency / Trials Completed: vSD, mean ± SEM
Excerpt: as §1, §2, §3, §4

[3] = repeated 0.1 and 0.3 mg/kg IP, 10 sec ITI
[4] = Group 1, 0.1 mg/kg, Drug Exp period
[5] = Group 1, 0.1 mg/kg, Post-Drug Exp (vehicle washout) period
[6] = Group 2, 0.3 mg/kg, Drug Exp period
[7] = Group 2, 0.3 mg/kg, Post-Drug Exp (vehicle washout) period

## Clc1ccc(C2(OCC3OCCO3)c3ccccc3C3=NCCN32)cc1 (centres unmarked) [Compound I-19]
Wistar rats [1]; repeated 0.1 and 0.3 mg/kg IP
  % Hit: modest decrease in accuracy that was limited to the 2.5 sec ITI
Wistar rats [1]; [3]
  premature responses: reduced the number of premature responses compared to both the pre- and post-drug conditions at the 10 sec ITI
  timeout responses: reduced the number of timeout responses compared to both the pre- and post-drug conditions at the 10 sec ITI
Wistar rats [1]; [4]
  Latency (Correct): 0.99
  Latency (Incorrect): 2.27 ± 0.12
  Magazine Head Entries: 236.13
  Omissions: 17.04
  Reward Latency: 2.77
  Trials Completed: 91.83 ± 4.15
Wistar rats [1]; [5]
  Latency (Correct): 0.90 ± 0.03
  Latency (Incorrect): 2.03 ± 0.09
  Magazine Head Entries: 318.71 ± 34.88
  Omissions: 9.63 ± 1.15
  Reward Latency: 2.13
  Trials Completed: 85.62 ± 4.17
Wistar rats [1]; [6]
  Latency (Correct): 0.97
  Latency (Incorrect): 2.26
  Magazine Head Entries: 268.17
  Omissions: 13.42
  Reward Latency: 3.21
  Trials Completed: 87.50
Wistar rats [1]; [7]
  Latency (Correct): 0.81 ± 0.03
  Latency (Incorrect): 1.82 ± 0.10
  Magazine Head Entries: 415.04 ± 70.50
  Omissions: 6.75 ± 1.44
  Reward Latency: 2.06
  Trials Completed: 78.46 ± 4.47
Wistar rats [2]; repeated 0.1 and 0.3 mg/kg IP
  % Hit: modest decrease in accuracy that was limited to the 0.6 sec stimulus duration
  premature responses: reduced the number of premature responses compared to post-drug conditions
Wistar rats [2]; [4]
  Latency (Correct): 0.99
  Latency (Incorrect): 2.17
  Magazine Head Entries: 168.21 ± 10.60
  Omissions: 15.79
  Reward Latency: 2.44
  Trials Completed: 94.17 ± 2.75
Wistar rats [2]; [5]
  Latency (Correct): 0.86 ± 0.03
  Latency (Incorrect): 1.90 ± 0.09
  Magazine Head Entries: 189.79 ± 14.47
  Omissions: 8.12 ± 1.63
  Reward Latency: 2.13
  Trials Completed: 97.79 ± 2.21
Wistar rats [2]; [6]
  Latency (Correct): 0.91
  Latency (Incorrect): 2.21
  Magazine Head Entries: 208.46 ± 28.88
  Omissions: 14.08
  Reward Latency: 2.99
  Trials Completed: 98.29 ± 0.84
Wistar rats [2]; [7]
  Latency (Correct): 0.76
  Latency (Incorrect): 1.65 ± 0.08
  Magazine Head Entries: 245.17 ± 33.79
  Omissions: 5.79 ± 1.35
  Reward Latency: 2.11
  Trials Completed: 100.00
